Source: patent US20150105329A1, “Methods and Pharmaceutical Compositions for Prevention or Treatment of Ischemia Related Organ Damage” (INSERM (Institut National de la Sante et de la Recherche …, priority 2012, published 2015)

Experiments:
[1] = test system: myocardial ischemia/reperfusion injury; assay: Myocardial ischemia/reperfusion injury, infarct size; type: in vivo, C57/Bl6J mice; details: for decrease of infarct size vs saline: 30 min ischemia, 3 h reperfusion, p<0.05 vs saline
Protocol: Adult C57/Bl6J mice of 12-15 weeks old (20-30 g) were anesthetized with sodium pentobarbital (60 mg/kg, i.p.). The animals were intubated and ventilated with 100% oxygen (200 μl/breath at a rate of 170 breaths/min), using a Harvard rodent ventilator (Model 845, Harvard Apparatus, Les Ulis, France). Body temperature was monitored with a rectal probe connected to a digital thermometer, and maintained at 37° C. using a heating pad. A catheter was inserted into the jugular vein for bolus injection of drug (0.01 ml/10 g BW, 10-20 sec). The electrocardiogram (ECG) was recorded throughout the experiments on a Gould TA240 recorder (ECG biotech; Gould Instruments, Cleveland, Ohio, USA). A left thoracotomy was performed to expose the heart, and the pericardium was removed. The left anterior descending coronary artery was occluded with an 8.0 prolene suture, 2 mm from the tip of the left atrium for 30 min. Successful coronary occlusion was verified by the development of a pale color in the distal myocardium and by ST segment elevation and QRS widening on the ECG. After 30 min of sustained ischemia, coronary blood flow was restored by loosening the suture. Successful reperfusion was confirmed by visualization of hyperaemic response and restoration of normal ECG. The lungs were then reinflated by increasing positive end expiratory pressure, and the chest was closed. Reperfusion was maintained for a 3-h period. Drugs dissolved in isotonic saline were injected 5 minutes before reperfusion. B2 receptor agonist was administrated at different non hypotensive dosages as defined in preliminary experiments. To ensure the role of specific activation of B2 receptor, B2 agonist was tested with pretreatment by B2R antagonist (HOE140). After reperfusion, the chest was reopened, the coronary artery was reoccluded, and 0.5 ml of a 5% Evans blue solution was injected as a bolus into the jugular vein in order to delineate the area at risk (AR), which remained unstained by the Evans blue. The heart was excised, and the left ventricle (LV) was isolated, weighed, and sliced into 4 transverse pieces from base to apex, the first cutter blade being positioned at the site of the coronary occlusion. The slices were weighed, and color digital images of both sides of each slice were obtained with a Power Shot S50 zoom digital camera (Canon, Tokyo, Japan) connected to a microscope (Leica M Z 75; Leica Microsystems, Rueil-Malmaison, France), using the Adobe Photoshop software (Adobe Systems, San Jose, Calif., USA). The slices were then incubated at 37° C. with buffered 1% 2,3,5-triphenyltetrazolium chloride (TTC) solution for 20 min. Viable myocardium, which contained dehydrogenases, reacted with TTC and was stained brick red, whereas any necrotic tissue remained unstained due to the lack of active enzymes. The tissue sections were then fixed in a buffered 10% formalin solution for 24 h before being photographed again to delineate the IS. The cross-sectional area, the lumen area, the AR (unstained by Evans blue), and IS (unstained by TTC) of the LV were outlined on each color image and quantified by a masked observer using the Scion Image software (Scion Image for Windows; http://www.scioncorp.com). The absolute weights of AR and IS were then calculated for each slice. The sum of the absolute weight values of AR and IS of the 3 ischemic slices of each heart was calculated and expressed as a percentage of the total weight of the slice. The ratio of IS to AR was calculated from these absolute weight evaluations and expressed as a percentage of AR.

[2] = cited from earlier work
hB2R [3] = target: T1, hB2R (Homo sapiens, UniProt P30411); details: naturally expressed and recombinant hB2R; cited from earlier work
T1 sequence (P30411 1-391): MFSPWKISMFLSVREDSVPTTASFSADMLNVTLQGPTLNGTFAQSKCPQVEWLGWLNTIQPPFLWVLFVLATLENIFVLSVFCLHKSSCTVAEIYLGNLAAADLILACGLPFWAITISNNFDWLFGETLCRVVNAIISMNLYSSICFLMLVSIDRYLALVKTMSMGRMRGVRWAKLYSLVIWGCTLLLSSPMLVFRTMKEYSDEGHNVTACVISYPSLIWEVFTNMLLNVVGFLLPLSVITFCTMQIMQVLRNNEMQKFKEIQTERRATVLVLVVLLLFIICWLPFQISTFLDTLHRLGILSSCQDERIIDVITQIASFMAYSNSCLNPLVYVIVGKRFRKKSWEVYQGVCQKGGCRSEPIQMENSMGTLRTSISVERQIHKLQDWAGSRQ

[4] = test system: hindlimb ischemia in streptozotocin-diabetic mice; assay: Peripheral (hindlimb) ischemia in diabetic mice, neovascularization; type: in vivo, C57BL/6J mice
Protocol: Two-to three-month-old male C57BL/6J mice were used. Type 1 diabetes was induced by 5 daily ip injections of low-dose of streptozotocin (50 mg/kg dissolved in 0.05M sodium citrate buffer, pH 4.5). Ischemia of hinlimb was induced by permanent ligation of the right femoral artery once the diabetes is established (hyperglycemia >300 mg/dl, 4 weeks after streptozocin injections). Mice were anesthetized by isoflurane inhalation (0.8% in oxygen stream) and the proximal part of the femoral artery just below the origin of the circumflexa femoris lateralis was occluded with a silk suture. Concomitantly with the surgery, half the mice was treated with the B2 agonist (30 nmol/kg·h^−1), infused continuously through osmotic minipumps implanted subcutaneously. The other half of the mice was infused with the vehicle (isotonic saline). Healthy mice, non diabetic without ischemia were used as control.
Two weeks after the onset of ischemia, neovascularization was evaluated by two methods. —Arteries were quantified by high definition microangiography using barium sulfate and digital X-ray transducer. Mice were anesthetized (Pentobarbital injection, 60 mg/kg, I.P.) and longitudinal laparatomy was performed to introduce a polyethylene catheter into the abdominal aorta to inject contrast medium (Barium sulfate, 1 mg/ml). Images (two per animal) were acquired using a high-definition digital X-ray transducer. Vessel density was expressed as a percentage of pixels per image occupied by vessel density in the quantification area. —Capillary density was analyzed by immunohistochemistry using fibronectin-FITC antibody. Frozen tissue sections (7 μm) from calf muscle were incubated with rabbit polyclonal antibody directed against total fibronectin (dilution 1:50) to identify capillaries. The number of capillary by field was determined in both ischemic and nonischemic legs. Results are expressed as ischemic to nonischemic ratio.

hB2R [5] = target: T1, hB2R; details: naturally expressed and recombinant hB2R; cited from earlier work; remark: listed apart in the source
[6] = 30 nmol/kg·h s.c. osmotic minipump, 14 days of ischemia

Row | Substance | effect on infarct size ([1]; antagonist given alone) | effect on cardioprotection by B2 agonist ([1]; pretreatment with B2R antagonist before B2 agonist) | decrease of infarct size vs saline ([1]; 0.01 nmol/kg i.v. bolus 5 min before reperfusion) [%] | decrease of infarct size vs saline ([1]; 0.1 nmol/kg i.v. bolus 5 min before reperfusion) [%] | decrease of infarct size vs saline ([1]; 0.3 nmol/kg i.v. bolus 5 min before reperfusion) [%] | infarct size relative to area at risk ([1]; acute administration, FIG. 1) | potency and duration of action in vivo compared with bradykinin [2] | in vitro potencies compared with bradykinin (hB2R [3]) | angiographic score [4, 6] | capillary density [4, 6] | angiogenic effect ([4]; chronic administration 30 nmol/kg·h, FIG. 2) | in vitro affinities compared with bradykinin (hB2R [5])
1 | HOE140 | no effect on infarct size | suppressed the cardioprotective effect of B2 agonist |  |  |  |  |  |  |  |  |  | 
2 | [Hyp(3), Thi(5), (N)Chg(7), Thi(8)]-BK [peptide 20] |  |  | −37.2 | −47.3 | −35.6 | Reducing effect | highly superior to bradykinin | greater | increase | increase | proangiogenic effect | greater
